Here are results for ten compounds from PubChem BioAssay (NCI).

Holding throughout (experiment): NCI-60 cell line screen, 48 h
Experiment [1] relates to SR leukemia.
The subject of experiment [2] is SNB-19 CNS.
Experiment [3] has as its system M14 melanoma.
In experiment [4] the test system is HCT-15 colon.
Experiment [5] has as its system HL-60(TB) leukemia.
Experiment [6] deals with 786-0 renal.
Experiment [7] deals with SF-295 CNS.
Experiment [8] relates to ACHN renal.
In experiment [9] the test system is UACC-257 melanoma.
In experiment [10] the test system is EKVX NSCLC.

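Compound exposure: 48 hours, 5 concentrations, 96-well plates. Abbreviation: GI50, concentration required for 50% inhibition of growth. TGI: concentration producing complete growth inhibition.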

As for `COc1ccc(Nc2ccnc(N3CCN(c4ccnc5cc(Cl)ccc45)CC3)n2)cc1`, the GI50 in [1] was 0.601 µM; in experiment [2], 1.48 µM; in experiment [3] it was 0.768 µM; in [4], 0.83 µM; in experiment [5] it was 1.14 µM; in experiment [6] it was 1.4 µM. For the same compound, the GI50 was 0.267 µM in experiment [7], 0.955 µM in experiment [8] and 1.25 µM in experiment [9]. Moreover, the TGI was 6.88 µM in experiment [1]; over 100 µM in experiment [2]; 3.28 µM in experiment [3]; over 100 µM in experiment [4]; 7.18 µM in experiment [5]; 6.87 µM in [6]. Besides, the values for the TGI in [7], in experiment [8] and in experiment [9] were 1.08 µM, over 24.5 µM and 2.84 µM, respectively.

Turning to `CC(C)C[C@H](NC(=O)CCn1ccc2ccccc2c1=O)B(O)O`, the GI50 in experiment [1] was 1.7 µM; in experiment [2], 8.02 µM; in [3], 4.23 µM; in experiment [4], 9.57 µM; in experiment [5], 2.69 µM; in experiment [6], 4.76 µM. The GI50 was 3.77 µM in experiment [7], 1.75 µM in [8] and 3.68 µM in experiment [9]. The TGI is 28.9 µM in experiment [1]; over 100 µM in experiment [2]; over 100 µM in experiment [3]; over 100 µM in experiment [4]; 49.5 µM in experiment [5]; over 100 µM in [6]. Also, the TGI is 19.6 µM in experiment [7], over 100 µM in [8] and 33.8 µM in experiment [9].

On to `C=CCc1cc(Nc2c3ccc(Cl)cc3nc3ccc(OC)cc23)cc(CN(CC)CC)c1O`, for which the GI50 in [1] is 0.362 µM; in experiment [2], 2.03 µM; in experiment [3], 1.9 µM; in experiment [4] it was 2.59 µM; in experiment [6], 2.31 µM; in experiment [7], 0.938 µM. Moreover, the GI50 in experiment [10] was 0.661 µM; in experiment [8], 2.12 µM; in experiment [9], 2.21 µM. Also, the TGI in experiment [1] was 3.47 µM; in experiment [2] it was 21.2 µM; in [3], 5.3 µM; in experiment [4], 12 µM; in [6], 10.1 µM; in experiment [7] it was 5.17 µM. Further, the TGI in experiment [10] amounted to 11.1 µM; in experiment [8], 13.1 µM; in experiment [9], 9.27 µM.

Consider `Fc1ccc(/C=N/n2c(-c3ccc(F)c(Cl)c3)n[nH]c2=S)cc1`, for which the GI50 in experiment [1] was 12.9 µM; in experiment [2], 22.5 µM; in experiment [3], 23.8 µM; in experiment [5] it was 34.8 µM; in experiment [6], 19.6 µM; in experiment [7], 31.7 µM. Also, the GI50 is 32.3 µM in experiment [10] and 30.6 µM in experiment [9]. In addition, the TGI in experiment [1] was 27.9 µM; in experiment [2] it was 44.1 µM; in experiment [3], 71.6 µM; in experiment [5], over 100 µM; in experiment [6] it was 38.3 µM; in experiment [7], 76.8 µM. In addition, the figures for the TGI in [10] and in experiment [9] were over 100 µM and 83 µM, respectively.

As to `COc1ccc2c(c1)C(=O)c1c-2c(OCCN(C)C)nc2ccccc12`, the GI50 was 0.998 µM in [1]; 2.68 µM in [2]; 3.85 µM in [3]; 2.02 µM in experiment [4]; 3.19 µM in experiment [5]; 4.06 µM in experiment [6]. Moreover, the figures for the GI50 in experiment [10], in experiment [8] and in [9] were 2.05 µM, 1.62 µM and 3.06 µM, respectively. For the same compound, the TGI in experiment [1] was 6.76 µM; in experiment [2], 12.4 µM; in [3] it was 15 µM; in experiment [4] it was 11.3 µM; in experiment [5], 15.4 µM; in experiment [6], 16.5 µM. For the same compound, the results for the TGI in experiment [10], in experiment [8] and in experiment [9] were 7.8 µM, 5.47 µM and 10.9 µM, respectively.

On to `O=C1C(OCCOc2ccccc2)=C(OCCOc2ccccc2)C(=O)c2ccccc21`, for which the GI50 in experiment [1] is 7.26 µM; in experiment [2], 11.1 µM; in [4] it was 3.14 µM; in experiment [5], over 100 µM; in experiment [6], 34.6 µM; in experiment [7], 5.11 µM. The GI50 in [10] is over 100 µM; in experiment [8], 5.09 µM; in [9], 3.72 µM. For the same compound, the TGI in experiment [1], in experiment [2], in [4], in experiment [5], in experiment [6] and in experiment [7] was over 100 µM each time. In addition, the TGI in experiment [10], in experiment [8] and in experiment [9] was over 100 µM throughout.

In the case of `O=C(Nc1ccccc1OC(=O)c1ccccc1)c1ccccc1`, the GI50 in experiment [1] is 3.12 µM; in [2], 25.1 µM; in experiment [3], 25.3 µM; in [4], 4.37 µM; in experiment [6], 15.6 µM; in experiment [7], 2.47 µM. The GI50 was 7.45 µM in [10], 43.6 µM in experiment [8] and 35.1 µM in experiment [9]. Moreover, the TGI was over 100 µM in experiment [1]; over 100 µM in [2]; over 100 µM in experiment [3]; over 100 µM in [4]; over 100 µM in experiment [6]; 8.03 µM in experiment [7]. The TGI in experiment [10], in [8] and in experiment [9] was over 100 µM each time.

Regarding `O=C(c1ccccc1)c1c(CC(O)c2ccncc2)n(C(=O)c2ccccc2)c2ccccc12` (stereo not given), the TGI came out at 39.5 µM in [1]; 73.1 µM in [2]; 30.8 µM in experiment [3]; 38.7 µM in experiment [4]; 39.9 µM in experiment [5]; 39.1 µM in [6]. Also, the TGI is 26 µM in experiment [7], 67.5 µM in experiment [8] and 32.9 µM in [9].

For the compound `COc1ccc(NC(=O)C(=O)/C=C(\O)c2ccccc2)cc1`, the TGI in [1] is 3.41 µM; in experiment [3], over 10 µM; in experiment [4], over 10 µM; in experiment [5], over 10 µM; in experiment [6], over 10 µM; in experiment [7], over 10 µM. Moreover, the TGI in experiment [10] and in experiment [9] was over 10 µM in each case.

As for `O=C(O)c1cc(CCc2cc(O)ccc2O)ccc1O`, the TGI in experiment [1] is over 100 µM; in [3] it was over 100 µM; in experiment [4], over 100 µM; in [5], 77.7 µM; in experiment [6], over 100 µM; in experiment [7], over 100 µM. The TGI in experiment [10], in experiment [8] and in [9] was over 100 µM throughout.
